From ChEMBL document CHEMBL6078680, “Improving the Stability and Anti-Infective Activity of Sea Turtle AMPs Using Multiple Structural Modification Strategies” (J Med Chem, 2024)
Activity calls are given as the source filed them. The rule behind the calls is not given here. Positions of bridges follow the written chain, without caps; N, C: chain ends. Residues, ends and D or L forms follow the SMILES beside them.

Experiments:
[1] = system: Escherichia coli; experiment: Antimicrobial activity against Escherichia coli ATCC 25922 assessed as reduction in microbial growth incubated for 18 hrs by broth microdilution method; format: functional
[2] = system: Acinetobacter baumannii; experiment: Antimicrobial activity against Acinetobacter baumannii ATCC19606 assessed as reduction in microbial growth incubated for 18 hrs by broth microdilution method; format: functional
[3] = system: Pseudomonas aeruginosa; experiment: Antimicrobial activity against Pseudomonas aeruginosa CMCC10104 assessed as reduction in microbial growth incubated for 18 hrs by broth microdilution method; format: functional
[4] = system: Salmonella enteritidis; experiment: Antimicrobial activity against Salmonella enterica subsp. enterica serovar Enteritidis ATCC 14028 assessed as reduction in microbial growth incubated for 18 hrs by broth microdilution method; format: functional
[5] = system: Staphylococcus aureus; experiment: Antimicrobial activity against Staphylococcus aureus CMCC 26003 assessed as reduction in microbial growth incubated for 18 hrs by broth microdilution method; format: functional
[6] = system: Clostridium perfringens; experiment: Antimicrobial activity against Clostridium perfringens ATCC 13124 assessed as reduction in microbial growth incubated for 18 hrs by broth microdilution method; format: functional
[7] = system: Staphylococcus aureus; experiment: Antimicrobial activity against Staphylococcus aureus ATCC 43300 assessed as reduction in microbial growth incubated for 18 hrs by broth microdilution method; format: functional
[8] = system: Enterococcus faecalis; experiment: Antimicrobial activity against Enterococcus faecalis ATCC 29217 assessed as reduction in microbial growth incubated for 18 hrs by broth microdilution method; format: functional
[9] = system: Staphylococcus epidermidis; experiment: Antimicrobial activity against Staphylococcus epidermidis assessed as reduction in microbial growth incubated for 18 hrs by broth microdilution method; format: functional
[10] = system: Staphylococcus aureus; experiment: Antimicrobial activity against Staphylococcus aureus 08032706 assessed as reduction in microbial growth incubated for 18 hrs by broth microdilution method; format: functional
[11] = Hemolytic activity at human Erythrocyte assessed as hemolysis at 100 microg/ml; format: toxicity, cell-based; conditions: erythrocytes, at 100 µg/mL, read-out: Activity
[12] = system: Peritoneal macrophage; experiment: Antiinflammatory activity in mouse Peritoneal macrophage cells assessed as inhibition of LPS-induced TNF-alpha production at 20 microg/ml incubated for 6 hrs by ELISA analysis; format: functional, cell-based; conditions: dose 20.0 µg/ml
[13] = system: Peritoneal macrophage; experiment: Antiinflammatory activity in mouse Peritoneal macrophage cells assessed as inhibition of LPS-induced IL-6 production at 20 microg/ml incubated for 6 hrs by ELISA analysis; format: functional, cell-based; conditions: dose 20.0 µg/ml
[14] = system: Staphylococcus aureus; experiment: Antibiofilm activity against Staphylococcus aureus CMCC 26003 assessed as inhibition of biofilm formation incubated for 48 hrs by crystal violet staining based analysis; format: functional, organism-based
[15] = system: Acinetobacter baumannii; experiment: Antibiofilm activity against Acinetobacter baumannii ATCC 19606 assessed as inhibition of biofilm formation incubated for 48 hrs by crystal violet staining based analysis; format: functional, organism-based
[16] = system: Acinetobacter baumannii; experiment: Antibiofilm activity against Acinetobacter baumannii ATCC 19606 assessed as biofilm eradication incubated for 24 hrs by crystal violet staining based analysis; format: functional, organism-based
[17] = system: Acinetobacter baumannii; experiment: Antibiofilm activity against Acinetobacter baumannii ATCC 19606 assessed as inhibition of biofilm formation at 0.5 times MIC incubated for 48 hrs by crystal violet staining based analysis; format: functional
[18] = system: Staphylococcus aureus; experiment: Antibiofilm activity against Staphylococcus aureus CMCC 26003 assessed as reduction in biofilm formation at 0.5 times MIC incubated for 24 hrs by crystal violet staining based analysis; format: functional; set-up: scale not given: the % may be the effect or the level left
[19] = system: Staphylococcus aureus; experiment: Antibiofilm activity against Staphylococcus aureus CMCC 26003 assessed as biofilm eradication at 0.5 to 2 times MIC incubated for 24 hrs by crystal violet staining based analysis; format: functional
[20] = system: Acinetobacter baumannii; experiment: Antipersister-activity against Acinetobacter baumannii ATCC 19606 assessed as elimination of persister cells at 50 times MIC preincubated adherent persistent cells with colistin incubation for 24 hrs; format: functional
[21] = system: Staphylococcus aureus; experiment: Antipersister-activity against Staphylococcus aureus CMCC 26003 assessed as elimination of persister cells at 50 times MIC preincubated adherent persistent cells with colistin incubation for 24 hrs; format: functional
[22] = system: Escherichia coli; experiment: Antibacterial activity against Escherichia coli ATCC 25922 assessed as increase in intracellular ROS production at 1 times MIC by DCFH-DA staining based assay; format: functional, organism-based
[23] = system: Escherichia coli; experiment: Antibacterial activity against Escherichia coli ATCC 25922 assessed as increase in intracellular ROS production at 2 to 5 times MIC by DCFH-DA staining based assay; format: functional, organism-based
[24] = system: Staphylococcus aureus; experiment: Antibacterial activity against Staphylococcus aureus CMCC 26003 assessed as increase in intracellular ROS production incubated for 1 hr by DCFH-DA staining based assay; format: functional, organism-based
[25] = system: Staphylococcus aureus; experiment: Bactericidal activity against Staphylococcus aureus CMCC 26003 assessed as bacterial eradication incubated at 0.5 hrs in presence of thiourea; format: functional, organism-based
[26] = system: Escherichia coli; experiment: Antibacterial activity against Escherichia coli ATCC 25922 at 1 times MIC in presence of exogenous DNA; format: functional, organism-based
[27] = Acute toxicity in BALB/c mouse assessed as mortality at 10 mg/kg, iv measured for 24 hrs; format: organism-based; conditions: in vivo, read-out: Activity
[28] = Acute toxicity in BALB/c mouse assessed as mortality at 15 mg/kg, iv measured for 24 hrs; format: organism-based; conditions: in vivo, read-out: Activity
[29] = Acute toxicity in BALB/c mouse assessed as mortality at 20 mg/kg, iv measured for 24 hrs; format: organism-based; conditions: in vivo, read-out: Activity
[30] = Acute toxicity in BALB/c mouse assessed as effect on BUN level at 10 mg/kg, iv measured for 24 hrs; format: organism-based; conditions: in vivo
[31] = Acute toxicity in BALB/c mouse assessed as effect on ALT level at 10 mg/kg, iv measured for 24 hrs; format: organism-based; conditions: in vivo
[32] = system: Acinetobacter baumannii; experiment: In vivo antibacterial activity against Acinetobacter baumannii ATCC19606 infected in BALB/c mouse assessed as reduction in bacterial load in lung at 15 mg/kg, ip measured after 3 hrs; format: functional, organism-based
[33] = system: Acinetobacter baumannii; experiment: In vivo antibacterial activity against Acinetobacter baumannii ATCC19606 infected in BALB/c mouse assessed as reduction in bacterial load in kidney at 15 mg/kg, ip measured after 3 hrs; format: functional, organism-based
[34] = system: Acinetobacter baumannii; experiment: In vivo antibacterial activity against Acinetobacter baumannii ATCC19606 infected in BALB/c mouse assessed as reduction in bacterial load in liver at 15 mg/kg, ip measured after 12 hrs; format: functional, organism-based
[35] = system: Acinetobacter baumannii; experiment: In vivo antibacterial activity against Acinetobacter baumannii ATCC19606 infected in BALB/c mouse assessed as reduction in bacterial load in lung at 15 mg/kg, ip measured after 12 hrs; format: functional, organism-based
[36] = system: Acinetobacter baumannii; experiment: In vivo antibacterial activity against Acinetobacter baumannii ATCC19606 infected in BALB/c mouse assessed as reduction in bacterial load in kidney at 15 mg/kg, ip measured after 12 hrs; format: functional, organism-based
[37] = system: Escherichia coli; experiment: Drug resistance, ratio of MIC for Escherichia coli ATCC 25922 after 40 passages to MIC for Escherichia coli ATCC 25922 during first exposure; format: functional
[38] = system: Staphylococcus aureus; experiment: Antibiofilm activity against Staphylococcus aureus CMCC 26003 assessed as biofilm eradication at 8 times MIC incubated for 24 hrs by crystal violet staining based analysis; format: functional
[39] = system: Cell membrane; experiment: Disruption of cell membrane integrity in Escherichia coli ATCC 25922 assessed as cell membrane damage at 5 times MIC measured after 30 mins by scanning electron microscopic analysis; format: subcellular
[40] = system: Staphylococcus aureus; experiment: Antimicrobial activity against Staphylococcus aureus CMCC 26003 assessed as fold increase in MIC incubated for 18 hrs in presence of CCCP; format: functional

| SMILES | MIC [1] [µg/mL] | MIC [2] [µg/mL] | MIC [3] [µg/mL] | MIC [4] [µg/mL] | MIC [5] [µg/mL] | MIC [6] [µg/mL] | MIC [7] [µg/mL] | MIC [8] [µg/mL] | MIC [9] [µg/mL] | MIC [10] [µg/mL] | hemolysis at 100 microg/ml [11] [%] | Activity [12] | Activity [13] | Activity [14] | Activity [15] | Activity [16] | inhibition (INH) [17] [%] | Activity [18] [%] | Activity [19] [%] | Activity [20] [%] | also measured |
| --- | --- | --- | --- | --- | --- | --- | --- | --- | --- | --- | --- | --- | --- | --- | --- | --- | --- | --- | --- | --- | --- |
| CC[C@H](C)[C@H](NC(=O)[C@H](CCCNC(=N)N)NC(=O)[C@H](CO)NC(=O)[C@H](Cc1c[nH]cn1)NC(=O)[C@H](CCCNC(=N)N)NC(=O)[C@H](CC(C)C)NC(=O)[C@@H](NC(=O)[C@H](CCCNC(=N)N)NC(=O)CNC(=O)[C@H](CC(C)C)NC(=O)[C@H](CCC(N)=O)NC(=O)[C@H](CCCCN)NC(=O)[C@H](CCCNC(=N)N)NC(=O)[C@@H](NC(=O)[C@H](CCCCN)NC(=O)[C@H](CCCCN)NC(=O)[C@@H](N)Cc1ccccc1)C(C)C)C(C)C)C(=O)N[C@H](C(=O)N[C@H](C(=O)NCC(=O)NCC(=O)N[C@@H](CCCNC(=N)N)C(=O)N[C@@H](CCSC)C(=O)N[C@@H](CCCNC(=N)N)C(=O)N[C@@H](Cc1ccccc1)C(=O)O)C(C)C)[C@@H](C)O | 2.34 | 4.69 | 4.69 | 1.17 | 2.34 | 2.34 | 75 | 4.69 | 18.8 | 9.38 | < 5 | Active | Active | Active | Active | Active | 10 | 20 | 20 | 60 | Activity [21]: 50%; Activity [22]: Active; Activity [23]: Active; Activity [24]: Dose-dependent-effect; Activity [25]: Active; Activity [26]: Active; mortality at 24 h [27]: 0%; mortality at 24 h [28]: 0%; mortality at 24 h [29]: 0%; Activity [30]: Non-toxic; Activity [31]: Non-toxic; Activity [32]: Active; Activity [33]: Active; Activity [34]: Active; Activity [35]: Active; Activity [36]: Active |
| CC[C@H](C)[C@H](NC(=O)[C@H](CCCNC(=N)N)NC(=O)[C@H](CO)NC(=O)[C@@H]1CSSC[C@H](N)C(=O)N[C@@H](Cc2ccccc2)C(=O)N[C@@H](CCCCN)C(=O)N[C@@H](CCCCN)C(=O)N[C@@H](C(C)C)C(=O)N[C@@H](CCCNC(=N)N)C(=O)N[C@@H](CCCCN)C(=O)N[C@@H](CCC(N)=O)C(=O)N[C@@H](CC(C)C)C(=O)NCC(=O)N[C@@H](CCCNC(=N)N)C(=O)N[C@@H](C(C)C)C(=O)N[C@@H](CC(C)C)C(=O)N[C@@H](CCCNC(=N)N)C(=O)N[C@@H](Cc2c[nH]cn2)C(=O)N1)C(=O)N[C@H](C(=O)N[C@H](C(=O)NCC(=O)NCC(=O)N[C@@H](CCCNC(=N)N)C(=O)N[C@@H](CCSC)C(=O)N[C@@H](CCCNC(=N)N)C(=O)N[C@@H](Cc1ccccc1)C(=O)O)C(C)C)[C@@H](C)O (H-CFKKVRKQLGRVLRHCSRITVGGRMRF-OH; disulfide 1-16) | 4.69 | 18.8 | 9.38 | 9.38 | 18.8 | 9.38 | 18.8 | 37.5 | 9.38 | 9.38 | < 5 | Active | Active | Active | Active | Active | 10 | 20 | 20 | 60 | Ratio [37]: 1; Activity [38]: 74.3%; Activity [21]: 50%; Activity [39]: Active; fold change (FC) [40]: 32; Activity [22]: Active; Activity [24]: Dose-dependent-effect; Activity [26]: Active; mortality at 24 h [27]: 0%; mortality at 24 h [28]: 0%; mortality at 24 h [29]: 100%; Activity [30]: Non-toxic; Activity [31]: Non-toxic; Activity [32]: Active; Activity [33]: Active; Activity [34]: Active; Activity [35]: Active; Activity [36]: Active |
